± gives the uncertainty stated by the source.
Assay: xn = mol fraction of the nth substance listed

CCCCCC[n+]1ccn(C)c1.O=S(=O)([N-]S(=O)(=O)C(F)(F)F)C(F)(F)F + CO
298.15 K, 100 kPa
Details	electrical conductivity [S/m]
x1 = 0.02978	1.7 ± 0.2
x1 = 0.04557	2.1 ± 0.2
x1 = 0.06683	2.3 ± 0.2
x1 = 0.09663	2.2 ± 0.2
x1 = 0.1426	1.9 ± 0.2

CCCCCCCC[P+](CC)(CC)CC.O=[N+]([O-])c1c[n-]cn1 + COCCOCCOCCOCCOC
viscosity [mPa·s], 100 kPa
Details	x1 = 0.599	x1 = 0.699	x1 = 0.9	x1 = 1
278.15 K	125 ± 4	210 ± 8	–	1270 ± 91
288.15 K	–	114 ± 3	–	569 ± 33
298.15 K	–	–	180 ± 7	–

CC[n+]1ccn(C)c1.COS(=O)(=O)[O-] + CS(C)=O
viscosity [mPa·s], 100 kPa
Details	298.15 K	303.15 K	308.15 K	313.15 K
x1 = 0.0164	4.16 ± 0.16	4.01 ± 0.15	3.89 ± 0.14	3.67 ± 0.13
x1 = 0.0398	7.35 ± 0.2	6.81 ± 0.19	6.27 ± 0.17	5.93 ± 0.16
x1 = 0.0602	9.97 ± 0.24	9.2 ± 0.22	8.55 ± 0.21	8.08 ± 0.2
x1 = 0.0941	14.18 ± 0.32	12.83 ± 0.29	12.06 ± 0.27	11.28 ± 0.25
x1 = 0.1236	17.62 ± 0.39	15.85 ± 0.35	14.5 ± 0.32	13.71 ± 0.3
x1 = 0.1519	20.91 ± 0.45	18.59 ± 0.4	16.92 ± 0.36	16.1 ± 0.35
x1 = 0.2143	27.4 ± 0.58	24.2 ± 0.51	21.94 ± 0.47	20.73 ± 0.44
x1 = 0.2927	34.95 ± 0.74	30.43 ± 0.64	27.28 ± 0.58	25.55 ± 0.54
x1 = 0.3737	41.96 ± 0.88	36.24 ± 0.76	32.09 ± 0.68	29.71 ± 0.62
x1 = 0.4429	47.4 ± 1	40.66 ± 0.86	35.66 ± 0.75	32.71 ± 0.69
x1 = 0.5298	53.6 ± 1.1	45.69 ± 0.96	39.54 ± 0.83	35.84 ± 0.75
x1 = 0.6072	58.8 ± 1.2	49.5 ± 1	42.55 ± 0.89	38.23 ± 0.8
x1 = 0.6927	64.3 ± 1.4	53.7 ± 1.1	45.77 ± 0.96	40.24 ± 0.85
x1 = 0.7486	67.7 ± 1.4	56.3 ± 1.2	47.7 ± 1	41.57 ± 0.87
x1 = 0.8263	72.7 ± 1.6	60 ± 1.3	50.3 ± 1	43.32 ± 0.91
x1 = 0.8944	77 ± 1.7	63.2 ± 1.3	52.7 ± 1.1	44.81 ± 0.94
x1 = 0.9396	80.1 ± 1.8	65.5 ± 1.4	54.3 ± 1.1	45.96 ± 0.97
x1 = 0.9755	82.5 ± 1.8	67.4 ± 1.4	55.7 ± 1.2	46.87 ± 0.99
x1 = 1	84.3 ± 1.9	68.7 ± 1.5	56.7 ± 1.2	47.6 ± 1

OCCCCCO + C[N+](C)(C)CCO.O=S(=O)([N-]S(=O)(=O)C(F)(F)F)C(F)(F)F
Details	viscosity [mPa·s]
333.15 K, 101 kPa, x1 = 1	20.3 ± 1.2

CCCCCC[n+]1ccn(C)c1.[Br-] + C[NH2+]CCC=C1c2ccccc2CCc2ccccc21.[Cl-] + O
viscosity [mPa·s], 100 kPa
Details	288.15 K	298.15 K	308.15 K	318.15 K
x2 = 0, x1 = 0.0001802	1.159 ± 0.044	0.926 ± 0.043	0.762 ± 0.043	0.645 ± 0.042
x2 = 0, x1 = 0.0007203	1.165 ± 0.044	0.934 ± 0.043	0.77 ± 0.043	0.643 ± 0.042
x2 = 0, x1 = 0.00126	1.171 ± 0.044	0.942 ± 0.043	0.776 ± 0.043	0.66 ± 0.043

CCCCCC[n+]1ccn(C)c1.O=S(=O)([N-]S(=O)(=O)C(F)(F)F)C(F)(F)F + ClC(Cl)Cl
electrical conductivity [S/m], 101 kPa
Details	x1 = 0.196	x1 = 0.335	x1 = 0.956	x1 = 0.97	x2 = 0.006
288.5 K	0.462	–	–	0.146	–
318.5 K	–	0.845	0.469	–	0.459

— the CheMixHub ionic liquid set
